Source: PMC5218480 (PLoS ONE, 2017)

Tested on: MV-4-11 cells
Assay: Gene expression microarray analysis (Affymetrix PrimeView) and GSEA
Type: cell-based, human
Design: RFU PODN (11730768_x_at) / Fold change /veh PODN (11730768_x_at) / RFU LINC00158 (11744669_a_at) / Fold change /veh LINC00158 (11744669_a_at) / RFU DUSP10 (11751237_a_at) / Fold change /veh DUSP10 (11751237_a_at) / RFU ID3 (11757404_x_at) / Fold change /veh ID3 (11757404_x_at) / RFU PLEKHG5 (11737974_s_at) / Fold change /veh PLEKHG5 (11737974_s_at) / RFU LRRC4B (11730491_at) / Fold change /veh LRRC4B (11730491_at) / RFU GIMAP4 (11747438_a_at) / Fold change /veh GIMAP4 (11747438_a_at) / RFU KRT8 (11758183_x_at) / Fold change /veh KRT8 (11758183_x_at) / RFU CNN1 (11734310_a_at) / Fold change /veh CNN1 (11734310_a_at) / RFU VPS37D (11726825_at) / Fold change /veh VPS37D (11726825_at) / RFU C10orf10 (11716522_x_at) / Fold change /veh C10orf10 (11716522_x_at) / RFU KIR2DL2 /// KIR2DL4 /// KIR2DL5A /// KIR2DL5B /// KIR2DS1 /// KIR2DS2 /// KIR2DS3 /// KIR2DS4 /// KIR3DL3 /// KIR3DL3 /// KIR3DS1 (11738374_at) / Fold change /veh KIR2DL2 /// KIR2DL4 /// KIR2DL5A /// KIR2DL5B /// KIR2DS1 /// KIR2DS2 /// KIR2DS3 /// KIR2DS4 /// KIR3DL3 /// KIR3DL3 /// KIR3DS1 (11738374_at) / RFU C1QL1 (11718748_at) / Fold change /veh C1QL1 (11718748_at) / RFU TMPRSS4 (11747572_a_at) / Fold change /veh TMPRSS4 (11747572_a_at) / RFU HAMP (11756126_x_at) / Fold change /veh HAMP (11756126_x_at) / RFU RNFT2 (11725882_a_at) / Fold change /veh RNFT2 (11725882_a_at) / RFU NR4A2 (11747474_a_at) / Fold change /veh NR4A2 (11747474_a_at) / RFU ABCC12 (11746883_a_at) / Fold change /veh ABCC12 (11746883_a_at) / RFU TMEM136 (11760407_x_at) / Fold change /veh TMEM136 (11760407_x_at) / RFU CLDN22 /// WWC2 (11732394_at) / Fold change /veh CLDN22 /// WWC2 (11732394_at) / RFU HLA-DPB1 (11760878_x_at) / Fold change /veh HLA-DPB1 (11760878_x_at) / RFU SPINT1 (11716480_a_at) / Fold change /veh SPINT1 (11716480_a_at) / RFU GAP43 (11754022_s_at) / Fold change /veh GAP43 (11754022_s_at) / RFU A4GNT (11735810_at) / Fold change /veh A4GNT (11735810_at) / RFU PRB3 (11715151_x_at) / Fold change /veh PRB3 (11715151_x_at) / RFU TUBB4B (11761932_at) / Fold change /veh TUBB4B (11761932_at) / RFU CAPN14 (11732068_a_at) / Fold change /veh CAPN14 (11732068_a_at) / RFU TMCC2 (11721928_a_at) / Fold change /veh TMCC2 (11721928_a_at) / RFU IRGQ (11745062_a_at) / Fold change /veh IRGQ (11745062_a_at) / RFU FAM174B (11720279_a_at) / Fold change /veh FAM174B (11720279_a_at) / RFU TMPRSS4 (11748680_a_at) / Fold change /veh TMPRSS4 (11748680_a_at) / RFU FAM212B (11763350_a_at) / Fold change /veh FAM212B (11763350_a_at) / RFU PLEKHG5 (11743358_a_at) / Fold change /veh PLEKHG5 (11743358_a_at) / RFU ZSCAN30 (11745921_a_at) / Fold change /veh ZSCAN30 (11745921_a_at) / RFU CMKLR1 (11741424_a_at) / Fold change /veh CMKLR1 (11741424_a_at) / RFU LOC101060620 /// MAPK8IP1 (11723275_at) / Fold change /veh LOC101060620 /// MAPK8IP1 (11723275_at) / RFU SPTSSB (11747773_x_at) / Fold change /veh SPTSSB (11747773_x_at) / RFU PRSS12 (11739890_at) / Fold change /veh PRSS12 (11739890_at) / RFU BIN1 (11741810_x_at) / Fold change /veh BIN1 (11741810_x_at) / RFU WNT11 (11732464_a_at) / Fold change /veh WNT11 (11732464_a_at) / RFU C10orf10 (11716521_a_at) / Fold change /veh C10orf10 (11716521_a_at) / RFU C5orf56 (11738089_at) / Fold change /veh C5orf56 (11738089_at) / RFU CYB561 (11721691_x_at) / Fold change /veh CYB561 (11721691_x_at) / RFU ANKRD19P (11752326_a_at) / Fold change /veh ANKRD19P (11752326_a_at) / RFU OR2T12 /// OR2T33 /// OR2T8 (11738714_s_at) / Fold change /veh OR2T12 /// OR2T33 /// OR2T8 (11738714_s_at) / RFU VCAN (11748164_a_at) / Fold change /veh VCAN (11748164_a_at) / RFU JSRP1 (11732532_at) / Fold change /veh JSRP1 (11732532_at) / RFU KRTAP10-11 (11738290_x_at) / Fold change /veh KRTAP10-11 (11738290_x_at) / RFU MYO3A (11730013_a_at) / Fold change /veh MYO3A (11730013_a_at) / RFU EBF3 (11725865_a_at) / Fold change /veh EBF3 (11725865_a_at) / RFU CAMK2N1 (11719241_x_at) / Fold change /veh CAMK2N1 (11719241_x_at) / RFU C5orf56 (11738088_a_at) / Fold change /veh C5orf56 (11738088_a_at) / RFU OLFML3 (11715873_a_at) / Fold change /veh OLFML3 (11715873_a_at) / RFU LOC100653217 /// NTM (11731650_a_at) / Fold change /veh LOC100653217 /// NTM (11731650_a_at) / RFU MAPK11 (11762145_a_at) / Fold change /veh MAPK11 (11762145_a_at) / RFU FIZ1 (11724087_x_at) / Fold change /veh FIZ1 (11724087_x_at) / RFU OASL (11726364_x_at) / Fold change /veh OASL (11726364_x_at) / RFU SOX15 (11748057_x_at) / Fold change /veh SOX15 (11748057_x_at) / RFU CD79A (11719716_a_at) / Fold change /veh CD79A (11719716_a_at) / RFU HIST1H1D (11736915_at) / Fold change /veh HIST1H1D (11736915_at) / RFU CASKIN2 (11723855_a_at) / Fold change /veh CASKIN2 (11723855_a_at) / RFU LOC730098 (11760151_x_at) / Fold change /veh LOC730098 (11760151_x_at) / RFU OR4N2 (11742367_at) / Fold change /veh OR4N2 (11742367_at) / RFU PRRT2 (11749266_a_at) / Fold change /veh PRRT2 (11749266_a_at) / RFU SNX32 (11753110_a_at) / Fold change /veh SNX32 (11753110_a_at) / RFU CDHR5 (11726645_a_at) / Fold change /veh CDHR5 (11726645_a_at) / RFU RCAN1 (11760418_a_at) / Fold change /veh RCAN1 (11760418_a_at) / RFU FAM167A (11723789_a_at) / Fold change /veh FAM167A (11723789_a_at) / RFU FAM26E (11764081_at) / Fold change /veh FAM26E (11764081_at) / RFU ISYNA1 (11749810_s_at) / Fold change /veh ISYNA1 (11749810_s_at) / RFU ACY1 (11761880_at) / Fold change /veh ACY1 (11761880_at) / RFU 11764098_at / Fold change /veh 11764098_at / RFU SAMD14 (11745864_x_at) / Fold change /veh SAMD14 (11745864_x_at) / RFU NPB (11741838_a_at) / Fold change /veh NPB (11741838_a_at) / RFU TMPRSS6 (11731388_a_at) / Fold change /veh TMPRSS6 (11731388_a_at) / RFU KRTAP10-2 (11738614_at) / Fold change /veh KRTAP10-2 (11738614_at) / RFU ARHGAP8 /// PRR5-ARHGAP8 (11727945_x_at) / Fold change /veh ARHGAP8 /// PRR5-ARHGAP8 (11727945_x_at) / RFU KRTAP5-7 /// NADSYN1 (11734609_at) / Fold change /veh KRTAP5-7 /// NADSYN1 (11734609_at) / RFU RASL12 (11751679_a_at) / Fold change /veh RASL12 (11751679_a_at) / RFU CDKN2B (11736163_a_at) / Fold change /veh CDKN2B (11736163_a_at) / RFU PRF1 (11729649_at) / Fold change /veh PRF1 (11729649_at) / RFU, ZNF638 /// ZNF638-IT1 / Fold change vs veh, ZNF638 /// ZNF638-IT1 / RFU, PANK3 / Fold change vs veh, PANK3 / RFU, SH3YL1 / Fold change vs veh, SH3YL1 / RFU, ZEB2 / Fold change vs veh, ZEB2 / RFU, NRIP1 / Fold change vs veh, NRIP1 / RFU, PTTG1IP / Fold change vs veh, PTTG1IP / RFU, CAPN2 / Fold change vs veh, CAPN2 / RFU, MED14 / Fold change vs veh, MED14 / RFU, SNORA58 / Fold change vs veh, SNORA58 / RFU, C1orf63 / Fold change vs veh, C1orf63 / RFU, LRRFIP1 / Fold change vs veh, LRRFIP1 / RFU, NDUFAF7 / Fold change vs veh, NDUFAF7 / RFU, SLC12A2 / Fold change vs veh, SLC12A2 / RFU, IBTK / Fold change vs veh, IBTK / RFU, ESF1 / Fold change vs veh, ESF1 / Fold change vs veh, TMEM50B / RFU, TAOK1 / Fold change vs veh, TAOK1 / RFU, ACBD3 / Fold change vs veh, ACBD3 / RFU, TMA16 / Fold change vs veh, TMA16 / RFU, RWDD3 / Fold change vs veh, RWDD3 / RFU, BCAT1 / Fold change vs veh, BCAT1 / RFU, EDEM3 / Fold change vs veh, EDEM3 / RFU, TMEM33 / Fold change vs veh, TMEM33 / RFU, WDR75 / Fold change vs veh, WDR75 / RFU, AHCTF1 / Fold change vs veh, AHCTF1 / RFU, TFRC / Fold change vs veh, TFRC / RFU, ZDHHC17 / Fold change vs veh, ZDHHC17 / RFU, NOM1 / Fold change vs veh, NOM1 / RFU, ARL8B / Fold change vs veh, ARL8B / RFU, ZBTB11 / Fold change vs veh, ZBTB11 / RFU, TAMM41 / Fold change vs veh, TAMM41 / RFU, KIAA1704 /// LOC100996395 / Fold change vs veh, KIAA1704 /// LOC100996395 / RFU, ING1 / Fold change vs veh, ING1 / RFU, TRMT61B / Fold change vs veh, TRMT61B / RFU, FUBP3 / Fold change vs veh, FUBP3 / RFU, TP53 / Fold change vs veh, TP53 / RFU, TNKS2 / Fold change vs veh, TNKS2 / RFU, ZFP14 / Fold change vs veh, ZFP14 / RFU, ACTR2 / Fold change vs veh, ACTR2 / RFU, PPP3R1 / Fold change vs veh, PPP3R1 / RFU, PIK3R1 / Fold change vs veh, PIK3R1 / RFU, HNRNPA1 / Fold change vs veh, HNRNPA1 / RFU, RNF170 / Fold change vs veh, RNF170 / RFU, ZNF28 / Fold change vs veh, ZNF28 / RFU, RNGTT / Fold change vs veh, RNGTT / RFU, OGT / Fold change vs veh, OGT / RFU, BRD1 / Fold change vs veh, BRD1 / RFU, MARS / Fold change vs veh, MARS / RFU, ZNF655 / Fold change vs veh, ZNF655 / RFU, FAHD1 / Fold change vs veh, FAHD1 / RFU, BDP1 / Fold change vs veh, BDP1 / RFU, LRRCC1 / Fold change vs veh, LRRCC1 / RFU, ARID1A / Fold change vs veh, ARID1A / RFU, ZNF146 / Fold change vs veh, ZNF146 / RFU, ZNF330 / Fold change vs veh, ZNF330 / RFU, GPN3 / Fold change vs veh, GPN3 / RFU, C9orf123 / Fold change vs veh, C9orf123 / RFU, N4BP2L2 / Fold change vs veh, N4BP2L2 / RFU, ARFIP1 / Fold change vs veh, ARFIP1 / RFU, FAM179B / Fold change vs veh, FAM179B / RFU, BCL10 / Fold change vs veh, BCL10 / RFU, UHRF1BP1L / Fold change vs veh, UHRF1BP1L / RFU, BET1 / Fold change vs veh, BET1 / RFU, CNOT2 / Fold change vs veh, CNOT2 / RFU, ZNF268 / Fold change vs veh, ZNF268 / Fold change vs veh, ZNF507 / RFU, DGCR2 / Fold change vs veh, DGCR2 / RFU, WDSUB1 / Fold change vs veh, WDSUB1 / Fold change vs veh, HSP90B1 /// MIR3652 / RFU, ADSS / Fold change vs veh, ADSS / RFU, GK / Fold change vs veh, GK / RFU, ZNF148 / Fold change vs veh, ZNF148 / RFU, TAF9 / Fold change vs veh, TAF9 / RFU, SLC1A5 / Fold change vs veh, SLC1A5 / RFU, SLMO2 / Fold change vs veh, SLMO2 / RFU, ABCC4 / Fold change vs veh, ABCC4 / RFU, LOC101060439 /// RAP1B / Fold change vs veh, LOC101060439 /// RAP1B / RFU, RFX7 / Fold change vs veh, RFX7 / RFU, GTPBP10 / Fold change vs veh, GTPBP10 / RFU, CNEP1R1 / Fold change vs veh, CNEP1R1 / RFU, BIVM-ERCC5 /// ERCC5 / Fold change vs veh, BIVM-ERCC5 /// ERCC5 / RFU, ILF3 / Fold change vs veh, ILF3 / RFU 11762660_at / Fold change /veh 11762660_at / RFU VCAN (11757783_s_at) / Fold change /veh VCAN (11757783_s_at) / RFU DDX43 (11728927_at) / Fold change /veh DDX43 (11728927_at) / RFU KRT8 (11758188_x_at) / Fold change /veh KRT8 (11758188_x_at) / RFU NKD1 (11759106_at) / Fold change /veh NKD1 (11759106_at) / RFU SRD5A1 (11742802_a_at) / Fold change /veh SRD5A1 (11742802_a_at) / RFU TPSAB1 /// TPSB2 (11721975_s_at) / Fold change /veh TPSAB1 /// TPSB2 (11721975_s_at) / RFU GSTM3 (11746129_a_at) / Fold change /veh GSTM3 (11746129_a_at) / RFU IL23R (11737362_x_at) / Fold change /veh IL23R (11737362_x_at) / RFU TMEM51 (11727254_a_at) / Fold change /veh TMEM51 (11727254_a_at) / RFU PIWIL2 (11732686_x_at) / Fold change /veh PIWIL2 (11732686_x_at) / RFU ORM1 (11744905_x_at) / Fold change /veh ORM1 (11744905_x_at) / RFU CCDC152 (11743942_at) / Fold change /veh CCDC152 (11743942_at) / RFU ECM1 (11717891_a_at) / Fold change /veh ECM1 (11717891_a_at) / RFU IL23R (11748794_a_at) / Fold change /veh IL23R (11748794_a_at) / RFU TNFAIP8L3 (11732012_x_at) / Fold change /veh TNFAIP8L3 (11732012_x_at) / RFU MBOAT4 (11741988_at) / Fold change /veh MBOAT4 (11741988_at) / RFU 11764193_at / Fold change /veh 11764193_at / RFU TMEM53 (11763286_at) / Fold change /veh TMEM53 (11763286_at) / RFU MAGEB2 (11727129_at) / Fold change /veh MAGEB2 (11727129_at) / RFU TMEM200A (11744735_a_at) / Fold change /veh TMEM200A (11744735_a_at) / RFU CCDC152 (11751479_a_at) / Fold change /veh CCDC152 (11751479_a_at) / RFU FAM211A (11726209_a_at) / Fold change /veh FAM211A (11726209_a_at) / RFU RGS16 (11746705_a_at) / Fold change /veh RGS16 (11746705_a_at) / RFU VCAN (11755009_s_at) / Fold change /veh VCAN (11755009_s_at) / RFU RHOB (11743442_s_at) / Fold change /veh RHOB (11743442_s_at) / RFU RGS16 (11720943_a_at) / Fold change /veh RGS16 (11720943_a_at) / RFU RGS16 (11720944_at) / Fold change /veh RGS16 (11720944_at) / RFU, VPS4B / Fold change vs veh, VPS4B / RFU, CREB1 / Fold change vs veh, CREB1 / RFU, DNAJC13 / Fold change vs veh, DNAJC13 / RFU, GNAQ / Fold change vs veh, GNAQ / RFU, CDK5R1 / Fold change vs veh, CDK5R1 / RFU, ZRANB3 / Fold change vs veh, ZRANB3 / RFU, CUL4A / Fold change vs veh, CUL4A / RFU, CCNY / Fold change vs veh, CCNY / RFU, UFL1 / Fold change vs veh, UFL1 / RFU, COG3 / Fold change vs veh, COG3 / RFU, DIAPH2 / Fold change vs veh, DIAPH2 / RFU, SKA2 / Fold change vs veh, SKA2 / RFU, AFF3 / Fold change vs veh, AFF3 / RFU, LMF1 / Fold change vs veh, LMF1 / RFU, IPO11 / Fold change vs veh, IPO11 / RFU, DFFB / Fold change vs veh, DFFB / RFU, FOXP1 / Fold change vs veh, FOXP1 / RFU, CARD8 / Fold change vs veh, CARD8 / RFU, STRN3 / Fold change vs veh, STRN3 / RFU, ADK / Fold change vs veh, ADK / RFU, RASSF2 / Fold change vs veh, RASSF2 / RFU, WIPF1 / Fold change vs veh, WIPF1 / RFU, LARP1B / Fold change vs veh, LARP1B / RFU, RASA1 / Fold change vs veh, RASA1 / RFU, RB1 / Fold change vs veh, RB1 / RFU, PPFIA1 / Fold change vs veh, PPFIA1 / RFU, MAT2A / Fold change vs veh, MAT2A / RFU, CCT5 / Fold change vs veh, CCT5 / RFU, WDR92 / Fold change vs veh, WDR92 / RFU, CUX1 / Fold change vs veh, CUX1 / RFU, TTC7A / Fold change vs veh, TTC7A / RFU, TMEM135 / Fold change vs veh, TMEM135 / RFU, DEPTOR / Fold change vs veh, DEPTOR / RFU, CPM / Fold change vs veh, CPM / RFU, DNAJB6 / Fold change vs veh, DNAJB6 / RFU, CACNA2D3 / Fold change vs veh, CACNA2D3 / RFU, DTX4 / Fold change vs veh, DTX4 / RFU, TFCP2 / Fold change vs veh, TFCP2 / RFU, GMCL1 /// GMCL1P1 / Fold change vs veh, GMCL1 /// GMCL1P1 / RFU, AEBP2 / Fold change vs veh, AEBP2 / RFU, SNHG1 /// SNORD22 /// SNORD25 /// SNORD26 /// SNORD27 /// SNORD28 /// SNORD29 /// SNORD31 / Fold change vs veh, SNHG1 /// SNORD22 /// SNORD25 /// SNORD26 /// SNORD27 /// SNORD28 /// SNORD29 /// SNORD31 / Fold change (Aza/veh), C12orf56 (ProbeSet 11735607_a_at) / Fold change (ACY-1035/veh), C12orf56 (ProbeSet 11735607_a_at) / Fold change (Aza/veh), FGFR1OP (ProbeSet 11751329_s_at) / Fold change (ACY-1035/veh), FGFR1OP (ProbeSet 11751329_s_at) / Fold change (Aza/veh), VPS36 (ProbeSet 11739960_a_at) / Fold change (ACY-1035/veh), VPS36 (ProbeSet 11739960_a_at) / RFU SYPL1 (11715823_x_at) / Fold change /veh SYPL1 (11715823_x_at) / RFU IGFBP7 (11715501_s_at) / Fold change /veh IGFBP7 (11715501_s_at) / RFU REEP3 (11722064_at) / Fold change /veh REEP3 (11722064_at) / RFU IGLL1 (11728026_x_at) / Fold change /veh IGLL1 (11728026_x_at): dose or concentration left out as unconfirmed
Details: MV-4-11 cells, 48 hours

## Nc1ncn([C@@H]2O[C@H](CO)[C@@H](O)[C@H]2O)c(=O)n1 [azacitidine]
  RFU OASL (11726364_x_at): 34.50 RFU
